{
  "source": "patent EP4685482A1",
  "about": "“METHOD FOR SELECTING DRUGS FOR THE TREATMENT OF MENTAL HEALTH PATHOLOGIES” (Neomente Corp, priority 2023, dated 2024)",
  "system": "Patients diagnosed with unipolar depression",
  "assay": "Clinical follow-up of patients with the SIGH-D-17 scale (treatment as usual vs guided by the Clinical Decision Support System), case examples",
  "format": "in vivo",
  "conditions": "for response to treatment regimen (patient history): Example 1: regimen of escitalopram, sertraline, risperidone, clonazepam and lamotrigine",
  "description": "Patients diagnosed with unipolar depression were recruited and divided into two groups. The first group Treatment as Usual (TAU) received treatment according to psychiatry clinical guidelines. The second group received Clinical Decision Support System Guided (CCDSg) additional support from the method for selecting neuropsychiatric drugs. Follow-up was conducted using the SIGH-D-17 scale in both groups at the beginning of treatment and 8 and 12 weeks. […]\nBased on the algorithm results, it was decided to discontinue the previous pharmacological regimen and initiate a new one consisting of desvenlafaxine and aripiprazole. A significant response was observed within 8 weeks of treatment initiation (69% reduction in SIGH-D-17 scale).\nWhile awaiting the results of the application of this method, pharmacological treatment with sertraline was initiated. […] These findings are consistent with the genetic variations found (alteration of the CYP2C19 enzyme). Subsequently, and with the results of the application of this method, pharmacological treatment with vortioxetine was implemented, achieving remission at 12 weeks.\n(53% reduction in SIGH-D-17 scale).",
  "key": {"[1]": {"conditions": "Example 4: person, depressive episode"}, "[2]": {"conditions": "Example 3: person, treatment-resistant unipolar depression"}, "[3]": {"conditions": "Example 1: person, severe unipolar depression, new regimen consisting of desvenlafaxine and aripiprazole, within 8 weeks of treatment initiation"}},
  "data": [
    {"smiles": "O=C1CN=C(c2ccccc2Cl)c2cc([N+](=O)[O-])ccc2N1", "note": "[clonazepam]", "values": [
      {"measurement": "response to treatment regimen (patient history)", "result": "subtherapeutic response"},
      {"measurement": "response (pharmacological history)", "setting": "[1]", "result": "poor response"}
    ]},
    {"smiles": "Cc1nc2n(c(=O)c1CCN1CCC(c3noc4cc(F)ccc34)CC1)CCCC2", "note": "[Risperidone]", "values": [
      {"measurement": "response to treatment regimen (patient history)", "result": "subtherapeutic response"}
    ]},
    {"smiles": "Nc1nnc(-c2cccc(Cl)c2Cl)c(N)n1", "note": "[lamotrigine]", "values": [
      {"measurement": "response to treatment regimen (patient history)", "result": "subtherapeutic response"},
      {"measurement": "response (pharmacological history)", "setting": "[1]", "result": "ineffective"}
    ]},
    {"smiles": "N#Cc1ccc2[nH]cc(CCCCN3CCN(c4ccc5oc(C(N)=O)cc5c4)CC3)c2c1", "note": "[Vilazodone]", "values": [
      {"measurement": "response (pharmacological history)", "setting": "[2]", "result": "no response"}
    ]},
    {"smiles": "COc1ccc(C(CN(C)C)C2(O)CCCCC2)cc1", "note": "(stereo not shown) [Venlafaxine]", "values": [
      {"measurement": "response (pharmacological history)", "setting": "[1]", "result": "ineffective"}
    ]},
    {"smiles": "CN[C@H]1CC[C@@H](c2ccc(Cl)c(Cl)c2)c2ccccc21", "note": "[Sertraline]", "values": [
      {"measurement": "response to treatment regimen (patient history)", "result": "subtherapeutic response"},
      {"measurement": "side effects", "setting": "Example 2: CYP2C19 intermediate metabolizer, treatment had to be discontinued", "result": "side effects at low doses"}
    ]},
    {"smiles": "CN(C)CCC[C@@]1(c2ccc(F)cc2)OCc2cc(C#N)ccc21", "note": "[Escitalopram]", "values": [
      {"measurement": "response to treatment regimen (patient history)", "result": "subtherapeutic response"},
      {"measurement": "response (pharmacological history)", "setting": "[2]", "result": "no response"}
    ]},
    {"smiles": "CN(C)CC(c1ccc(O)cc1)C1(O)CCCCC1", "note": "(stereo not shown) [Desvenlafaxine]", "values": [
      {"measurement": "reduction in SIGH-D-17 scale", "setting": "[3]", "result": 69, "unit": "%"},
      {"measurement": "response (pharmacological history)", "setting": "[2]", "result": "no response"}
    ]},
    {"smiles": "CN(C)C(=O)N[C@H]1CC[C@H](CCN2CCN(c3cccc(Cl)c3Cl)CC2)CC1", "note": "[Cariprazine]", "values": [
      {"measurement": "response (pharmacological history)", "setting": "[2]", "result": "no response"}
    ]},
    {"smiles": "O=c1ccc2ccc(OCCCCN3CCN(c4cccc5sccc45)CC3)cc2[nH]1", "note": "[Brexpiprazole]", "values": [
      {"measurement": "reduction in SIGH-D-17 scale", "setting": "Example 3: person, treatment-resistant unipolar depression, quetiapine gradually replaced by brexpiprazole, at 8 weeks of treatment", "result": 53, "unit": "%"}
    ]},
    {"smiles": "O=C1CCc2ccc(OCCCCN3CCN(c4cccc(Cl)c4Cl)CC3)cc2N1", "note": "[Aripiprazole]", "values": [
      {"measurement": "reduction in SIGH-D-17 scale", "setting": "[3]", "result": 69, "unit": "%"}
    ]},
    {"smiles": "Cc1ccc(Sc2ccccc2N2CCNCC2)c(C)c1", "note": "[Vortioxetine]", "values": [
      {"measurement": "reduction in SIGH-D-17 scale", "setting": "Example 2: person, mild unipolar depression, vortioxetine, remission at 12 weeks", "result": 67, "unit": "%"},
      {"measurement": "response (pharmacological history)", "setting": "[2]", "result": "no response"}
    ]},
    {"smiles": "CN(C)CCCN1c2ccccc2CCc2ccc(Cl)cc21", "note": "[Clomipramine]", "values": [
      {"measurement": "response (pharmacological history)", "setting": "[2]", "result": "no response"}
    ]}
  ]
}
